Test results as given in PubChem BioAssay (NCI).
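GI50 = concentration required for 50% inhibition of growth. TGI: total growth inhibition.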

Columns and labels:
Test in all cases: inhibition of tumour cell growth, NCI panel, 384-well format
IGROV1 ovarian = system: IGROV1 ovarian
BT-549 breast = system: BT-549 breast
NCI-H322M lung = system: NCI-H322M lung
MDA-MB-231 breast = system: MDA-MB-231 breast
COLO 205 colon = system: COLO 205 colon
UACC-257 melanoma = system: UACC-257 melanoma
SK-MEL-2 melanoma = system: SK-MEL-2 melanoma
CCRF-CEM leukemia = system: CCRF-CEM leukemia
ACHN renal = system: ACHN renal
SK-OV-3 ovarian = system: SK-OV-3 ovarian
NCI-H460 NSCLC = system: NCI-H460 NSCLC
NCI-H23 lung = system: NCI-H23 lung
SW-620 colon = system: SW-620 colon
NCI-H522 lung = system: NCI-H522 lung
HT29 colon = system: HT29 colon
TK-10 renal = system: TK-10 renal
MDA-MB-435 melanoma = system: MDA-MB-435 melanoma
HL-60(TB) leukemia = system: HL-60(TB) leukemia
T-47D breast = system: T-47D breast
NCI-H226 lung = system: NCI-H226 lung
OVCAR-4 ovarian = system: OVCAR-4 ovarian
A549 NSCLC = system: A549 NSCLC
SF-295 CNS = system: SF-295 CNS
PC-3 prostate = system: PC-3 prostate
U251 glioblastoma = system: U251 glioblastoma
CAKI-1 renal = system: CAKI-1 renal
SK-MEL-28 melanoma = system: SK-MEL-28 melanoma
SN12C renal = system: SN12C renal
HOP-62 NSCLC = system: HOP-62 NSCLC
786-0 renal = system: 786-0 renal
M14 melanoma = system: M14 melanoma
NCI/ADR-RES ovarian = system: NCI/ADR-RES ovarian
SF-539 CNS = system: SF-539 CNS
DU-145 prostate = system: DU-145 prostate
HS 578T breast = system: HS 578T breast
HCC-2998 colon = system: HCC-2998 colon
MALME-3M melanoma = system: MALME-3M melanoma
EKVX NSCLC = system: EKVX NSCLC
HCT-15 colon = system: HCT-15 colon
HOP-92 NSCLC = system: HOP-92 NSCLC
SK-MEL-5 melanoma = system: SK-MEL-5 melanoma
MDA-MB-468 breast = system: MDA-MB-468 breast
SF-268 CNS = system: SF-268 CNS
RPMI-8226 leukemia = system: RPMI-8226 leukemia
SNB-19 CNS = system: SNB-19 CNS
OVCAR-8 ovarian = system: OVCAR-8 ovarian
OVCAR-3 ovarian = system: OVCAR-3 ovarian
UACC-62 melanoma = system: UACC-62 melanoma
KM12 colon = system: KM12 colon
MOLT-4 leukemia = system: MOLT-4 leukemia
OVCAR-5 ovarian = system: OVCAR-5 ovarian
RXF 393 renal = system: RXF 393 renal
SR leukemia = system: SR leukemia
SNB-75 CNS = system: SNB-75 CNS
MCF7 breast = system: MCF7 breast
A498 renal = system: A498 renal

CC(C)n1nc(-c2ccc3oc(N)nc3c2)c2c(N)ncnc21
GI50 (IGROV1 ovarian): < 10 nM | TGI (IGROV1 ovarian): 26.6 nM | GI50 (BT-549 breast): 12.1 nM | TGI (BT-549 breast): 56.9 nM | GI50 (NCI-H322M lung): 14.2 nM | TGI (NCI-H322M lung): 2270 nM | GI50 (MDA-MB-231 breast): 18.7 nM | TGI (MDA-MB-231 breast): 681 nM | GI50 (COLO 205 colon): 12.6 nM | TGI (COLO 205 colon): 64 nM | GI50 (UACC-257 melanoma): 51.4 nM | TGI (UACC-257 melanoma): 523 nM | GI50 (SK-MEL-2 melanoma): 53.7 nM | TGI (SK-MEL-2 melanoma): 92.1 nM | GI50 (CCRF-CEM leukemia): 16.1 nM | TGI (CCRF-CEM leukemia): 258 nM | GI50 (ACHN renal): 36.2 nM | TGI (ACHN renal): 347 nM | GI50 (SK-OV-3 ovarian): < 10 nM | TGI (SK-OV-3 ovarian): 42 nM | GI50 (NCI-H460 NSCLC): < 10 nM | TGI (NCI-H460 NSCLC): 1870 nM | GI50 (NCI-H23 lung): 74.3 nM | TGI (NCI-H23 lung): 1630 nM | GI50 (SW-620 colon): 113 nM | TGI (SW-620 colon): 3140 nM | GI50 (NCI-H522 lung): < 10 nM | TGI (NCI-H522 lung): 32.6 nM | GI50 (HT29 colon): 44.5 nM | TGI (HT29 colon): 10400 nM | GI50 (TK-10 renal): 11.6 nM | TGI (TK-10 renal): 109 nM | GI50 (MDA-MB-435 melanoma): 26.4 nM | TGI (MDA-MB-435 melanoma): 152 nM | GI50 (HL-60(TB) leukemia): 326 nM | TGI (HL-60(TB) leukemia): 3000 nM | GI50 (T-47D breast): < 10 nM | TGI (T-47D breast): < 10 nM | GI50 (NCI-H226 lung): 10.2 nM | TGI (NCI-H226 lung): 62.7 nM | GI50 (OVCAR-4 ovarian): 18.5 nM | TGI (OVCAR-4 ovarian): 56.7 nM | GI50 (A549 NSCLC): 17.9 nM | TGI (A549 NSCLC): 259 nM | GI50 (SF-295 CNS): 27.8 nM | TGI (SF-295 CNS): 380 nM | GI50 (PC-3 prostate): < 10 nM | TGI (PC-3 prostate): 85.3 nM | GI50 (U251 glioblastoma): 66.2 nM | TGI (U251 glioblastoma): 7220 nM | GI50 (CAKI-1 renal): 14.7 nM | TGI (CAKI-1 renal): 82.8 nM | GI50 (SK-MEL-28 melanoma): 18.7 nM | TGI (SK-MEL-28 melanoma): 83.9 nM | GI50 (SN12C renal): 10.5 nM | TGI (SN12C renal): 1450 nM | GI50 (HOP-62 NSCLC): 12.4 nM | TGI (HOP-62 NSCLC): 119 nM | GI50 (786-0 renal): 44.8 nM | TGI (786-0 renal): 1510 nM | GI50 (M14 melanoma): 14.7 nM | TGI (M14 melanoma): 165 nM | GI50 (NCI/ADR-RES ovarian): 35.9 nM | TGI (NCI/ADR-RES ovarian): 402 nM | GI50 (SF-539 CNS): 32.8 nM | TGI (SF-539 CNS): 626 nM | GI50 (DU-145 prostate): 35.4 nM | TGI (DU-145 prostate): 2680 nM | GI50 (HS 578T breast): < 10 nM | TGI (HS 578T breast): 26.4 nM | GI50 (HCC-2998 colon): 15.3 nM | TGI (HCC-2998 colon): 5310 nM | GI50 (MALME-3M melanoma): < 10 nM | TGI (MALME-3M melanoma): < 10 nM | GI50 (EKVX NSCLC): 18.2 nM | TGI (EKVX NSCLC): 122 nM | GI50 (HCT-15 colon): < 10 nM | TGI (HCT-15 colon): 11600 nM | GI50 (HOP-92 NSCLC): 20.2 nM | TGI (HOP-92 NSCLC): 190 nM | GI50 (SK-MEL-5 melanoma): 13.8 nM | TGI (SK-MEL-5 melanoma): 45.8 nM | GI50 (MDA-MB-468 breast): < 10 nM | TGI (MDA-MB-468 breast): 15.2 nM | GI50 (SF-268 CNS): 40.8 nM | TGI (SF-268 CNS): 579 nM | GI50 (RPMI-8226 leukemia): < 10 nM | TGI (RPMI-8226 leukemia): < 10 nM | GI50 (SNB-19 CNS): 69.6 nM | TGI (SNB-19 CNS): 10600 nM | GI50 (OVCAR-8 ovarian): 40.1 nM | TGI (OVCAR-8 ovarian): 858 nM | GI50 (OVCAR-3 ovarian): 22.2 nM | TGI (OVCAR-3 ovarian): 1160 nM | GI50 (UACC-62 melanoma): 18.4 nM | TGI (UACC-62 melanoma): 78 nM | GI50 (KM12 colon): 21.7 nM | TGI (KM12 colon): 1840 nM | GI50 (MOLT-4 leukemia): 17.7 nM | TGI (MOLT-4 leukemia): 726 nM | GI50 (OVCAR-5 ovarian): 24.5 nM | TGI (OVCAR-5 ovarian): 603 nM | GI50 (RXF 393 renal): 12.5 nM | TGI (RXF 393 renal): 50.3 nM | GI50 (SR leukemia): 17.3 nM | TGI (SR leukemia): 63.5 nM | GI50 (SNB-75 CNS): < 10 nM | TGI (SNB-75 CNS): 42 nM | GI50 (MCF7 breast): < 10 nM | TGI (MCF7 breast): 7120 nM | GI50 (A498 renal): < 10 nM | TGI (A498 renal): 22 nM
